Earlier results, collected in US9084755B2, “Method for extracting and separating ginkgolides” (CHENGDU BAIYU TECHNOLOGY PHARMACY CO., LTD, priority 2012, dated 2015).

Biological target: platelet-activating factor PAF receptor (Homo sapiens, UniProt P25105)
Conditions: compared among ginkgolides

platelet-activating factor PAF receptor, sequence (P25105 whole entry): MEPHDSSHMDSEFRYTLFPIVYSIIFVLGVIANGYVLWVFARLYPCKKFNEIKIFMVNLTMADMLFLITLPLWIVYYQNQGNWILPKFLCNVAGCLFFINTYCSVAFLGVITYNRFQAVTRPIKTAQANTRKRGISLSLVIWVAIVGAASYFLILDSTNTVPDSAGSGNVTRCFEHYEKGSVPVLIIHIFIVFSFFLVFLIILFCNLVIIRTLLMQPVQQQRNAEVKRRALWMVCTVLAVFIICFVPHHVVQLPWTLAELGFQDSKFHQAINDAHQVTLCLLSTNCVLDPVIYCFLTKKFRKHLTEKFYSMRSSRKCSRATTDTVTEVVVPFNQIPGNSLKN

## C[C@@H]1C(=O)O[C@H]2[C@H](O)C34[C@H]5C[C@@H](C(C)(C)C)[C@]36[C@@H](OC(=O)[C@@H]6O)O[C@@]4(C(=O)O5)[C@@]12O (stereo partly shown) [ginkgolide B]
  antagonism to the PAF: strongest
